Data set [1] has as its system primary cultured rat hepatocytes. The experiment in a line: In vitro cytotoxicity in primary cultured rat hepatocytes. The class given is cell-based. The note with it: 24 h treatment, cell morphology and LDH leakage, highest concentration 300 μM; for LCC (lowest cytotoxic concentration): "300 s" = only slight cytotoxicity at the highest test concentration. An excerpt: In Vitro Cytotoxicity in Primary Cultured Rat Hepatocytes
Adult male Wistar rats were narcotized with sodium pentobarbital and hepatocytes were isolated according to a standard procedure, i.e. by in situ perfusion of the liver with a collagenase solution. The viability of the purified hepatocytes, checked by the trypan blue dye exclusion method was greater than 85%. The isolated hepatocytes were resuspended in standard Williams Medium E, without phenol red, supplemented (WME supp.) with transferrin (100 μg/ml), triiodothyronine (10 μg/ml), gentamicin (50 μg/ml), hydrocortison hemisuccinate (13.36 μg/ml), glucagon (5 μg/ml), HEPES (10 mM), inosin (10 μ/ml), insulin (10 μg/ml), streptomycin (100 μg/ml) and penicillin (100 U/ml) and 10% fetal bovine serum (FBS). The cells were plated in collagen-coated 24-well plates at an initial density of 2×10^5 cells/well. After 4 h for attachment to the culture-plates, the medium was aspirated and replaced by fresh WME supp. without FBS containing the test compounds and incubated for 24 h at 37° C. in a […] and 5% CO2 atmosphere. For each experiment, i.e., with each batch of hepatocytes, treatments with the test compounds were done in quadriplicate. Quadriplicate controls (treatment with the vehicle only) were also present on each culture plate.
Stock solutions of the test compounds were prepared in DMSO a few hours before treatment start. Appropriate dilutions of these stock solutions were added to the culture media just prior to the treatment in order to give final concentrations of 0, 3, 10, 30, 100 and 300 μM. The final concentration of the vehicle DMSO was 1% (v/v).
The morphology of the hepatocyte monolayers was monitored by light microscopy after 24 hours of exposure to the test compounds. Treatment related effects are described according to the following grading: • 0 No morphological alterations observed upon treatment when compared to the control cultures • 1-3 Treatment resulting in any morphological changes, e.g. intracellular granulation, vacuolization or cell death. Depending on the severity, these changes were regarded as slight (1), moderate (2) or strong (3). • K Treatment resulting in 100% dead cells and/or the complete detachment of the monolayer yielding a clear cell-free dish.
After 24 h treatment of the hepatocyte cultures, aliquots of culture medium were carefully collected and used for the analysis of lactate dehydrogenase (LDH) activity by spectrophotometry using the LDH cytotoxicity detection kit from Clontech (cat No. 630117, Mountain View, Calif., USA). For each experiment, additional cultures were used for the determination of total intracellular LDH activity at treatment start. For this purpose, 4 wells of cell culture per experiment were washed with cold saline before treatment start, sonicated in fresh medium and the homogenate was analyzed for total LDH activity. Enzyme activities in the culture media were assessed and expressed as percentage of the total activity present in the cultured hepatocytes at the beginning of the treatments.
The lowest cytotoxic concentration (LCC) and the no effect concentration (NoEC) are given for each compound, based on cell morphology and LDH leakage after 24 h treatment. LCC is defined as the lowest concentration of the test compound leading to a clear effect on the cultured rat hepatocytes (morphology grading 2 or 2-fold increase in LDH leakage). A LCC value of >300 μM indicates the absence of effect on both endpoints at the highest test concentration of 300 μM. […] NoEC is defined as the highest test concentration of the compound which was without an effect on the cultured rat hepatocytes (morphology and LDH leakage). • 3 . Results

Data set [2] addresses T1, hCRTH2 receptor (Homo sapiens, UniProt Q9Y5Y4).
T1 construct: expressed in transfected cells; host or cells: HEK293 (recombinant HEK293-hCRTH2), membrane fragments
T1 sequence (Q9Y5Y4 1-395): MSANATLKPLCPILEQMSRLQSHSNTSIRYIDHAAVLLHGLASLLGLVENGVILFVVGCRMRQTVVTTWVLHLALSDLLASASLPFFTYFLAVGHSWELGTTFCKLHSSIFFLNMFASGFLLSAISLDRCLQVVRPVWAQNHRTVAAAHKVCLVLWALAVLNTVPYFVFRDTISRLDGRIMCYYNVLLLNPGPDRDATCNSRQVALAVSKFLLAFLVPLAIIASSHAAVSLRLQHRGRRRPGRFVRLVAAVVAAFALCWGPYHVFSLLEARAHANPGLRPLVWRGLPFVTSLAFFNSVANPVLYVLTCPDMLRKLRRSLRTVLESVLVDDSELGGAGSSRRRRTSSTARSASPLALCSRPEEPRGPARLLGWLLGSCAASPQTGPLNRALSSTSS
The experiment in a line: hCRTH2 receptor membranes radioligand displacement assay (3H-PGD2). Format: binding. The settings on record: HEK293-hCRTH2 membranes, 3H-PGD2 2.5 nM, 0.1% BSA. The procedure:
Preparation of hCRTH2 Receptor Membranes and Radioligand Displacement Assay:
(§1) First, recombinant HEK293-hCRTH2 cells were detached from culture plates into 5 ml buffer A/plate (Buffer A: 5 mM Tris, 1 mM MgCl2-6H2O pH=7.4) using a rubber policeman. Cells were then transferred into centrifugation tubes and centrifuged for 5 min at 400 g. The cell pellet was resuspended in the same buffer and tubes were frozen at 80° C. Cells were thawed and membrane fragments were generated by homogenization using a polytron homogenizer (30 seconds). The membrane fragments were then centrifuged at 3000 g for 20 minutes and resuspended in buffer C (Buffer C: 75 mM Tris, 25 mM MgCl2, 250 mM Saccharose pH 7.4). Aliquots of membrane fragements were stored at −20° C.
Binding assay was performed in a final assay volume of 250 μl. First, 25 μl of test compound, previously diluted in Binding-Buffer (Binding-Buffer: 50 mM Tris-Base, 100 mM NaCl, 1 mM EDTA, 0.1% BSA (protease free), 0.01% NaN3, 10 mM MnCl2 pH 7.0) was placed into each well. After addition of 75 μl Binding-Buffer, 50 μl of the radioligand ^3H-PGD2 (at 2.5 nM (220.000 dpm/well) from ANAWA ART0662) was added to each well. Binding assay was started by addition of 100 μl CRTH2 membrane fragments, reaching a final concentration of 20 μg/well. For non-specific binding, PGD2 was added to the reaction mixture to […] final concentration. This assay mix was incubated for 90 minutes at room temperature and then filtered through a GF/C filter 96-well plate which was pre-soaked for 3 hours in 0.5% polyethyleneimine (PEI). The filter-wells were washed three times with ice cold Binding-Buffer. Then, 40 μl of Microscint-40 (Packard) was added to each well and the retained radioactivity quantified in a Topcount (Packard).

For data set [3], the system named is eosinophils activated by PGD2. Nature of the data set: Eosinophil shape change assay with human plasma. The note with it: 50% human plasma, PGD2 100 nM, shape change by forward-scatter. Format: cell-based. The procedure: Eosinophil Shape Change Assay with human Plasma
After obtaining informed consent, blood samples were drawn by venipuncture according to the protocol approved by the ethics committee of Basel, Switzerland. Polymorphonuclear leukocytes (containing eosinophils, basophils and neutrophils) were isolated using the Polymorphprep™ method (Axis-Shield). In brief, anticoagulated whole blood was layered onto a Polymorphprep gradient (density 1.113 g/ml) and centrifuged at 500 g for 30 min. The polymorphonuclear cell fraction was harvested and depleted for erythrocytes by hypotonic saline lysis. […]
Immediately after fixation with paraformaldehyde, the samples were analyzed by FACSCanto flow cytometer (BD Biosciences) and target cells were identified by their forward-scatter (FSC) and side-scatter (SSC) characteristics. […] Shape change responses, indicative of eosinophil activation, were quantified as the percent of cells with an increased forward-scatter.

Data set [4] concerns the target T1, hCRTH2 receptor. The experiment in a line: Radioligand displacement assay in presence of human serum albumin (HSA). The note with it: Binding buffer with 0.5% HSA instead of 0.1% BSA, 3H-PGD2 2.5 nM. The procedure: as §1
Binding assay was performed in a final assay volume of 250 μl. […] After addition of 75 μl Binding-Buffer, 50 μl of the radioligand ^3H-PGD2 (at 2.5 nM (220.000 dpm/well) from ANAWA ART0662) was added to each well. Binding assay was started by addition of 100 μl CRTH2 membrane fragments, reaching a final concentration of 20 μg/well. For non-specific binding, PGD2 was added to the reaction mixture to […] final concentration. […] Then, 40 μl of Microscint-40 (Packard) was added to each well and the retained radioactivity quantified in a Topcount (Packard). […]

Bounds are passed on as bounds.

Regarding `CN(c1nc2ccc(Cl)cc2o1)[C@H]1CCc2c(c3cc(F)ccc3n2CC(=O)O)C1`, in data set [1], the “NoEC (no effect concentration)” value came out at 30 µM and the “LCC (lowest cytotoxic concentration)” value is 100^ μM.

`CN(c1nc2ccc(Cl)cc2o1)C1CCc2c(c3ncccc3n2CC(=O)O)C1` (stereo not shown) [Example 1, 2-(8-((6-chlorobenzo[d]oxazol-2-yl)(methyl)amino)-6,7,8,9-tetrahydro-5H-pyrido[3,2-b]indol-5-yl)acetic acid]: the IC50 stood at 0.011 µM on hCRTH2 receptor [2], 0.027 µM in data set [3] and 0.031 µM on hCRTH2 receptor [4].

On hCRTH2 receptor [2], `CN(c1nc2cc(Cl)ccc2o1)C1CCc2c(c3ncccc3n2CC(=O)O)C1` (stereo not shown) [Example 2, 2-(8-((5-chlorobenzo[d]oxazol-2-yl)(methyl)amino)-6,7,8,9-tetrahydro-5H-pyrido[3,2-b]indol-5-yl)acetic acid] gave a 50% inhibitory concentration (IC50) of 0.035 µM.

In turn, `CN(c1nc2cc(F)ccc2o1)C1CCc2c(c3ncccc3n2CC(=O)O)C1` (stereo not shown) [Example 3, 2-(8-((5-fluorobenzo[d]oxazol-2-yl)(methyl)amino)-6,7,8,9-tetrahydro-5H-pyrido[3,2-b]indol-5-yl)acetic acid] returned an IC50 on hCRTH2 receptor [2] of 0.031 µM.

Regarding `CN(c1nc2ccc(Cl)cc2o1)C1CCc2c(c3ncccc3n2CC(=O)O)C1` (stereo not shown) [drawing 11], in data set [1], the “NoEC (no effect concentration)” value is >300 µM and the “LCC (lowest cytotoxic concentration)” value is >300^ μM.

For the compound `CN(c1nc2cc(Cl)ccc2o1)C1CCc2c(c3ncccc3n2CC(=O)O)C1` (stereo not shown) [drawing 12], in data set [1], the “NoEC (no effect concentration)” value came out at 100 µM and the “LCC (lowest cytotoxic concentration)” value amounted to 300 s.

As to `CN(c1nc2cc(F)ccc2o1)C1CCc2c(c3ncccc3n2CC(=O)O)C1` (stereo not shown) [drawing 13], in data set [1], the “NoEC (no effect concentration)” value was determined as 100 µM and the “LCC (lowest cytotoxic concentration)” value was 300 s.

(Values after patent US9850241B2, “Azaindole acetic acid derivatives and their use as prostaglandin D2 receptor modulators” (IDORSIA PHARMACEUTICALS LTD, priority 2014, dated 2017).)
